Assay results published in US6806257B1, “Flavones as inducible nitric oxide synthase inhibitors, cyclooxygenase-2 inhibitors and potassium channel activators” (priority 1999, dated 2004).
Entries after “also recorded” stand apart in the source; their conditions may differ. Where two headings read alike, the source gives them in different places. Marks after values point to notes of the source that are not given here.

How the values were obtained:
[1] = tested on: LPS-induced NO production in RAW264.7 macrophages; assay: LPS-induced nitrite (NO) production in RAW264.7 macrophages, Griess reaction; assay type: cell-based, mouse; conditions: 5, 10 or 20 μg/ml together with 100 ng/ml LPS for 24 hours
Protocol: (§1) Cells. RAW264.7, a mouse macrophage cell line, was obtained from American Type Culture Collection. Cells were cultured in RPMI-1640 medium (available from Gibco Life Technology, in Gaithersburg, Md.) supplemented with 2 mM L-glutamine, antibiotics (100 units/ml penicillin-A and 100 units/ml streptomycin) and 10% heat-inactivated fetal bovine serum (Gibco/BRL) and maintained at 37° C in a humidified incubator containing 5% CO2.
Nitrite assay. The nitrite concentration in the medium was measured as an indicator of NO production according to the Griess reaction (Kim et al., J. Immunol. 153: 4741-4748). One hundred microliters of each supernatant was. mixed with the same volume of Griess reagent (1% sulfanilamide in 5% phosphoric acid and 0. 1% naphthylethylenediamine dihydrochloride in water); absorbency of the mixture at 550 nm was determined with an enzyme-linked immunosorbent assay plate reader (Dynatech MR-7000; Dynatech Labs, Chantilly, Va.).
The effects of flavonoids, ellagitannins, anthraquinones on LPS-induced NO production in macrophages were studied as follows. The chemical structures of two flavonoids (myricitrin, N1; oroxylin A, N2) four ellagitannins (penta-O-galloyl-β-glucopyranose, N3; woodfordin C, N4; onothein B, N5; cuphiin, N6), and two anthraquinones (emodin, N7; physcion, N8) that were used in the present study were shown in FIG. 1. The effects of these eight compounds on NO production in RAW264.7 macrophages were investigated. The accumulated nitrite in the culture medium was used as an index for NO synthesis from these cells. […]

[2] = tested on: iNOS; assay: LPS-induced nitrite production and iNOS expression in Bcl-2-overexpressed RAW264.7 cells; assay type: cell-based, mouse; conditions: 20 μg/ml, LPS 100 ng/ml, Bcl-2/RAW-1 and Bcl-2/RAW-2 cells
[3] = tested on: porcine cerebral arteries; assay: In vitro tissue bath vasorelaxation of precontracted porcine cerebral arteries; conditions: for EC50: Sus scrofa; for U-46619-induced active muscle tone: 0.1-30 μM
[4] = tested on: iNOS; assay: LPS-induced iNOS expression in RAW264.7 macrophages (western/northern blot); assay type: cell-based, mouse
Protocol: as §1
(§2) Western blots. Total cellular extract, cytosolic fractions (for IkB) and nuclear fraction (for p65 antibody) were prepared according to Muller et al., Immunobiology, 187, 233-256, 1993 and separated on sodium dodecyl sulfatepolyacrylamide minigels (8% for iNOS or COX-2, and 10% for IkB or p65) and transferred to immobilon polyvinylidene difluoride membranes (Millipore, Bedford, Mass.). The membrane was incubated overnight at 4° C. with 1% bovine serum albumin and then incubated with anti-iNos, COX-2, α-Tubulin monoclonal antibodies (Transduction Laboratories, Lexington, Ky.), anti-IkB or anti-p65 polyclonal antibodies (Santa Cruz Biochemicals, Santa Cruz, Calif.). iNOS, IkB, p65, Cox-2, α-Tubulin were detected by NBT and BCIP staining (Sigma Chemical Co., St. Louis, Mo.).
Northern blot analysis. Total RNA (20 μg/lane) were separated by electrophoresis on 1.2% agarose gel containing 6.7% formaldehyde and transformed to a Hybond-N nylon membrane (American Life Science) in 20×standard saline citrate (3 M sodium chloride and 0.3 M sodium citrate, pH 7.0). After heating at 80° C. for 2 hours and prehybridization for 4 hours, the filters were hybridized with ^32P-labeled murine iNOS cDNA probes at a concentration of 3×10^6 cpm/ml for 16-18 hours at 42° C. The probe was labeled with [α-32P] dCTP by using Random Primer labeling kit (Stratagene, La Jolla, Calif.). Then, the filters were washed, dried and autoradiographed with Kodak-X-Omat XAR-film using intensifying screens at −80° C.

[5] = tested on: COX-2; assay: LPS-induced COX-2 expression in RAW264.7 macrophages (western/northern blot); assay type: cell-based, mouse
Protocol: as §1, §2

[6] = conclusion from blocker experiments

## COc1c(O)cc2oc(-c3ccccc3)cc(=O)c2c1O [oroxylin A, 5,7-dihydroxy-6-methoxy flavone]
[1]
  LPS-induced nitrite production: significant inhibition
[2]
  LPS-induced iNOS gene expression: inhibited
  LPS-induced nitrite production: inhibited
[3]; 60 μM, KCl (80 mM)-pre-contracted arterial rings, n=5
  transient relaxation: 20.2±1.63 % of PPV-induced maximum relaxation
[3]; 60 μM, same arteries contracted with U-46619, n=5
  relaxation: 95.1±4.31 % of PPV-induced maximum relaxation
[3]; 80 mM KCl, 1-60 μM, with or without endothelial cells
  sustained relaxation in KCl-precontracted arteries: did not induce sustained relaxation; also recorded: failed to induce sustained relaxation
[3]; Oroxylin A 3 μM, after 4-AP (10 mM)
  Percent of Maximum Control Relaxation: 1.8 ± 1.6%
[3]; Oroxylin A 3 μM, after ETI (10 μM)
  Percent of Maximum Control Relaxation: 21.4 ± 2.1%
[3]; Oroxylin A 3 μM, after GLP (30 μM)
  Percent of Maximum Control Relaxation: 24.6 ± 3.4%
[3]; Oroxylin A 3 μM, after IBT (100 nM)
  Percent of Maximum Control Relaxation: 16.8 ± 3.1%
[3]; Oroxylin A 3 μM, after INDO (30 μM)
  Percent of Maximum Control Relaxation: 23.0 ± 1.8%
[3]; Oroxylin A 3 μM, after L-NNA (60 μM)
  Percent of Maximum Control Relaxation: 26.9 ± 3.4%
[3]; Oroxylin A 3 μM, after MCN (5 μM)
  Percent of Maximum Control Relaxation: 21.2 ± 3.4%
[3]; Oroxylin A 3 μM, after TEA (1 mM)
  Percent of Maximum Control Relaxation: 7.1 ± 3.0%
[3]; Oroxylin A 3 μM, after TEA (10 mM)
  Percent of Maximum Control Relaxation: 0** Percent
[3]; Oroxylin A 3 μM, control (no inhibitor), n=12
  Percent of Maximum Control Relaxation: 24.6 ± 1.9%
[3]; Oroxylin A 10 μM, after 4-AP (10 mM)
  Percent of Maximum Control Relaxation: 9.7 ± 2.0%
[3]; Oroxylin A 10 μM, after ETI (10 μM)
  Percent of Maximum Control Relaxation: 41.3 ± 4.4%
[3]; Oroxylin A 10 μM, after GLP (30 μM)
  Percent of Maximum Control Relaxation: 46.5 ± 7.1%
[3]; Oroxylin A 10 μM, after IBT (100 nM)
  Percent of Maximum Control Relaxation: 30.8 ± 5.2%
[3]; Oroxylin A 10 μM, after INDO (30 μM)
  Percent of Maximum Control Relaxation: 41.8 ± 5.6%
[3]; Oroxylin A 10 μM, after L-NNA (60 μM)
  Percent of Maximum Control Relaxation: 45.3 ± 6.0%
[3]; Oroxylin A 10 μM, after MCN (5 μM)
  Percent of Maximum Control Relaxation: 37.4 ± 4.5%
[3]; Oroxylin A 10 μM, after TEA (1 mM)
  Percent of Maximum Control Relaxation: 31.5 ± 6.6%
[3]; Oroxylin A 10 μM, after TEA (10 mM)
  Percent of Maximum Control Relaxation: 4.87 ± 1.5%
[3]; Oroxylin A 10 μM, control (no inhibitor), n=12
  Percent of Maximum Control Relaxation: 49.0 ± 3.4%
[3]; Oroxylin A 30 μM, after 4-AP (10 mM)
  Percent of Maximum Control Relaxation: 28.4 ± 6.7%
[3]; Oroxylin A 30 μM, after ETI (10 μM)
  Percent of Maximum Control Relaxation: 91.4 ± 1.5%
[3]; Oroxylin A 30 μM, after GLP (30 μM)
  Percent of Maximum Control Relaxation: 84.2 ± 7.1%
[3]; Oroxylin A 30 μM, after IBT (100 nM)
  Percent of Maximum Control Relaxation: 68.1 ± 7.2%
[3]; Oroxylin A 30 μM, after INDO (30 μM)
  Percent of Maximum Control Relaxation: 89.1 ± 3.6%
[3]; Oroxylin A 30 μM, after L-NNA (60 μM)
  Percent of Maximum Control Relaxation: 91.9 ± 2.8%
[3]; Oroxylin A 30 μM, after MCN (5 μM)
  Percent of Maximum Control Relaxation: 87.2 ± 2.6%
[3]; Oroxylin A 30 μM, after TEA (1 mM)
  Percent of Maximum Control Relaxation: 58.6 ± 6.7%
[3]; Oroxylin A 30 μM, after TEA (10 mM)
  Percent of Maximum Control Relaxation: 16.3 ± 2.0%
[3]; Oroxylin A 30 μM, control (no inhibitor), n=12
  Percent of Maximum Control Relaxation: 86.0 ± 2.6%
[3]; after ETI (10 μM), read-out: EC50
  EC50: 8.1 µM
[3]; after GLP (30 μM), read-out: EC50
  EC50: 11.2 µM
[3]; after IBT (100 nM), read-out: EC50
  EC50: 15 µM
[3]; after INDO (30 μM), read-out: EC50
  EC50: 10 µM
[3]; after L-NNA (60 μM), read-out: EC50
  EC50: 11.4 µM
[3]; after MCN (5 μM), read-out: EC50
  EC50: 10.5 µM
[3]; after TEA (1 mM), read-out: EC50
  EC50: 21.5 µM
[3]; after TEA (10 mM), read-out: EC50
  EC50: 39.3 µM
[3]; control (no inhibitor), n=12, read-out: EC50
  EC50: 8.4 µM
[3]; endothelium-denuded arteries, U-46619, n=12, read-out: EC50 of relaxation
  EC50: 8.4 µM
[3]; intact endothelium, pre-contracted with U-46619 (1 μM), n=4, read-out: EC50 of relaxation
  EC50: 7.9 µM
[3]; U-46619 (1 μM)
  U-46619-induced active muscle tone: concentration-dependant inhibition
[3]; U-46619 (1 μM), listed as Oroxylin A
  U-46619-induced active muscle tone: in a concentration-dependent manner decreased
[3]; [6]
  Ca2+-activated K+ channel opening: is a Ca^2+— activated K^+ channel opener
  KATP channel opening: is not a KATP channel opener
[3]; intact endothelium, U-46619 (1 μM)
  concentration at which maximum relaxation was achieved: 30 µM
[4]
  blocking LPS-induced iNOS gene expression, comparison among compounds tested: most potent among the compounds tested
[4]; 100 ng/ml LPS, western blot
  LPS-induced iNOS protein: inhibited LPS-induced iNOS protein in a concentration-dependent manner
[5]
  LPS-induced COX-2 gene expression (protein and mRNA): most potent among the compounds tested; also recorded: inhibited
